Assay results from patent publication US20210261583A1, “Synthetic Cytotoxic Molecules, Drugs, Methods of Their Synthesis and Methods of Treatment” (The Regents of the University of California, priority 2018, published 2021).
pIC50: −log10 of the molar value. Structures can show the parent of a compound that is named as a salt. Where two headings read alike, the source gives them in different places.

Experiments:
[1] = system: vacuolation; experiment: Vacuolation score; format: cell-based; details: for activity in vacuolation tests: compared to hydroxy pyrrolidine ketone progenitors 20, 21, 23 and 24
[2] = system: cancer cells; experiment: Cytotoxicity (IC50); format: cell-based
[3] = system: CD98; experiment: Nutrient transporter (CD98) down-regulation; format: cell-based; details: for activity in downregulation tests: compared to hydroxy pyrrolidine ketone progenitors 20, 21, 23 and 24
[4] = Racemization/epimerization, deuterium incorporation and cyclization in protic solvents; format: physicochemical; details: for time to complete incorporation of deuterium at C-2: D2O, room temperature; for racemization / epimerization after N-Boc deprotection: dissolved in protic solvents such as water and MeOH, gives 1:1 mixture of enantiomers or epimers
Procedure: In the presence of D2O at room temperature, deuterium was incorporated at C-2 confirming a fast enolization followed by β-elimination and ring closure. […] The incorporation of deuterium is complete in 30 min at pH=10, and in 3 hours at pH=7.
It was therefore decided to further investigate this new structural analog and we prepared the bicyclic enantiopure pyrrolizidine 17 bearing the aryloctyl appendage on C-3, in analogy with our lead compound 3 as well as the monocyclic variant 18, to check the effect of the substituent position and the nature of the azacycles (FIG. 7).

[5] = at concentration near IC50 / where it kills 50% of cells

| Structure (SMILES) | Vacuolation score ([1]; 2.5 μM) | Vacuolation score ([1]; 10 μM) | pIC50 [2] | inhibition at 2.5 µM ([3]; 2.5 μM) [%] | inhibition at 10 µM ([3]; 10 μM) [%] | inhibition at 40 µM ([3]; 40 μM) [%] | also measured |
| --- | --- | --- | --- | --- | --- | --- | --- |
| CCCCCCCCc1ccc(C(=O)[C@@H]2C[C@@H](OP(=O)(O)O)CN2)cc1.Cl [Compound 30, (2S,4R)-2-(4-Octylbenzoyl)-4-(phosphonooxy)pyrrolidin-1-ium chloride] | 0 | 0 | 4.89 |  |  |  | Vacuolation score ([1]; 40 μM): 0; activity in vacuolation tests [1]: totally inactive; % CD98 down-regulation ([3]; 10 μM): −9%; % CD98 down-regulation ([3]; 40 μM): −0%; activity in downregulation tests [3]: totally inactive |
| CCCCCCCCc1ccc(C(=O)CC[C@@H]2C[C@@H](O)CN2)cc1 [Compound 15, (2R,4R)-4-Hydroxy-2-(3-(4-octylphenyl)-3-oxopropyl)pyrrolidin-1-ium chloride] |  |  | 5.68 | 15 | 52 |  |  |
| CCCCCCCCc1ccc(C(=O)CC[C@H]2C[C@H](CO)CN2)cc1.Cl [Compound 13, 3-(2S,4S)-4-(Hydroxymethyl)pyrrolidin-2-yl)-1-(4-octylphenyl)propan-1-one hydrochloride] |  |  | 5.40 |  |  |  |  |
| CCCCCCCCc1ccc(CC(=O)[C@H]2C[C@H](OP(=O)(O)O)CN2)cc1.Cl [Compound 32, (2R,4S)-2-(2-(4-Octylphenyl)acetyl)-4-(phosphonooxy)pyrrolidin-1-ium chloride] |  | 0 | 4.60 |  | 5 | 8 | Vacuolation score ([1]; 40 μM): 0; activity in vacuolation tests [1]: totally inactive; activity in downregulation tests [3]: totally inactive |
| CCCCCCCCc1ccc(C(=O)[C@H]2C[C@H](O)CN2)cc1.Cl [Compound 21, (2R,4S)-4-Hydroxy-2-(4-octylbenzoyl)pyrrolidin-1-ium chloride] | 0 |  | 4.82 | 12 | 51 | 41 | vacuolation (in words) ([1]; 10 μM): reached maximum vacuolation |
| CCCCCCCCc1ccc(C(=O)C[C@H]2C[C@H](CO)CN2)cc1.Cl (mixture of isomers) [Compound 12, 2-((2R,4S)-4-(Hydroxymethyl)pyrrolidin-2-yl)-1-(4-octylphenyl)ethan-1-one hydrochloride] |  |  | 5.70 | 44 | 50 |  | time to complete incorporation of deuterium at C-2 ([4]; pH=7): 3 h; time to complete incorporation of deuterium at C-2 ([4]; pH=10): 0.5 h; racemization / epimerization after N-Boc deprotection [4]: prone to racemization and epimerization; stability to epimerization ([4]; pH≤3 in H2O): stable only in very acidic conditions |
| CCCCCCCCc1ccc(C(C[C@@H]2CCCN2)OC)cc1.Cl (single isomer, unassigned) [Compound 10, hydrochloride] |  |  | 5.52 | 15 | 58 |  |  |
| CCCCCCCCc1ccc(C(=O)[C@@H]2CCCN2)cc1.Cl [Compound 19, (S)-2-(4-Octylbenzoyl)pyrrolidin-1-ium chloride] | 0 | 0 |  | -21 | -4 | 33 |  |
| CCCCCCCCc1ccc(CC(=O)[C@@H]2C[C@@H](OP(=O)(O)O)CN2)cc1.Cl [Compound 31, (2S,4R)-2-(2-(4-Octylphenyl)acetyl)-4-(phosphonooxy)pyrrolidin-1-ium chloride] |  | 0 | 4.60 |  | 3 | 0 | Vacuolation score ([1]; 40 μM): 0; activity in vacuolation tests [1]: totally inactive; activity in downregulation tests [3]: totally inactive |
| CCCCCCCCc1ccc([C@@H]2CCC3C[C@H](CO)CN32)cc1.Cl (stereo partly drawn) [Compound 14, ((2S,5S)-5-(4-Octylphenyl)hexahydro-1H-pyrrolizin-2-yl)methanol hydrochloride] | 0 | 0 | 4.91 | 0 | 32 | 68 | pIC50 ([2]; hydrochloride): 4.91 |
| CCCCCCCCc1ccc(CC(O)[C@@H]2C[C@@H](O)CN2)cc1 (stereo partly drawn) [Compound 25, (2S,4R)-4-Hydroxy-2-(1-hydroxy-2-(4-octylphenyl)ethyl)pyrrolidin-1-ium chloride] |  |  | 5.52 | 19 | 62 |  |  |
| CCCCCCCCc1ccc(CC(=O)[C@@H]2C[C@@H](O)CN2)cc1.Cl [Compound 23, (2S,4R)-4-Hydroxy-2-(2-(4-octylphenyl)acetyl)pyrrolidin-1-ium chloride] | 0 | 0 | 4.73 | 13 | 23 | 59 |  |
| CCCCCCCCc1ccc(CC(=O)[C@H]2C[C@H](O)CN2)cc1.Cl [Compound 24, (2R,4S)-4-Hydroxy-2-(2-(4-octylphenyl)acetyl)pyrrolidin-1-ium chloride] | 0 | 0 | 4.77 | 11 | 16 | 54 |  |
| CCCCCCCCc1ccc([C@H]2CCN[C@@H]2CO)cc1.Cl [Compound 3, reference compound] |  |  | 5.68 |  |  |  | % CD98 down-regulation ([3]; 2.5 μM): 42%; % CD98 down-regulation ([3]; 10 μM): 66% |
| CCCCCCCCc1ccc(C(C[C@@H]2CCCN2)OC)cc1.Cl (single isomer, unassigned) [Compound 10, (2S)-2-(2-Methoxy-2-(4-octylphenyl)ethyl)pyrrolidine hydrochloride] | 0 |  |  |  |  |  |  |
| CCCCCCCCc1ccc(C(=O)[C@@H]2C[C@@H](OP(=O)(O)O)CN2)cc1.Cl [Compound 29, (2S,4R)-2-(4-Octylbenzoyl)-4-(phosphonooxy)pyrrolidin-1-ium chloride] | 0 | 0 | 4.89 |  |  |  | Vacuolation score ([1]; 40 μM): 0; activity in vacuolation tests [1]: totally inactive; % CD98 down-regulation ([3]; 10 μM): 3%; % CD98 down-regulation ([3]; 40 μM): −8%; activity in downregulation tests [3]: totally inactive |
| CCCCCCCCc1ccc(C(=O)C[C@@H]2C[C@@H](O)CN2)cc1.Cl [Compound 11, (2S,4R)-4-Hydroxy-2-(2-(4-octylphenyl)-2-oxoethyl)pyrrolidin-1-ium chloride] |  |  | 5.68 | 22 | 46 |  | racemization / epimerization after N-Boc deprotection [4]: prone to racemization and epimerization |
| CCCCCCCCc1ccc(C[C@@H]2C[C@@H](O)CN2)cc1 [Compound 16, (3R,5R)-5-(4-Octylbenzyl)pyrrolidin-3-ol] |  |  | 5.66 | 40 | 63 |  |  |
| CCCCCCCCc1ccc(C(=O)C[C@@H]2CCCN2)cc1.Cl [Compound 8, (S)-1-(4-Octylphenyl)-2-(pyrrolidin-2-yl)ethan-1-one hydrochloride] |  |  | 5.60 | 78 | 57 |  | racemization / epimerization after N-Boc deprotection [4]: prone to racemization and epimerization |
| CCCCCCCCc1ccc(C(=O)CC[C@H]2C[C@H](CO)CN2)cc1.Cl [Compound 13] | 0 |  |  |  |  |  | % CD98 down-regulation ([3]; 2.5 μM): 8%; % CD98 down-regulation ([3]; 10 μM): 46% |
| CCCCCCCCc1ccc(CC[C@@H]2CCCN2)cc1 [Compound 9, (R)-2-(4-Octylphenethyl)pyrrolidine hydrochloride] |  |  | 5.55 | 41 | 63 |  |  |
| CCCCCCCCc1ccc(C(=O)[C@H]2C[C@H](CO)CN2)cc1.Cl [Compound 22, ((2R,4S)-4-(Hydroxymethyl)pyrrolidin-2-yl)(4-octylphenyl)methanone hydrochloride] | 0 | 0 | 4.71 | 0 | 19 | 61 |  |
| CCCCCCCCc1ccc(CC(O)[C@H]2C[C@H](O)CN2)cc1.Cl (stereo partly drawn) [Compound 26, (2R,4S)-4-Hydroxy-2-(1-hydroxy-2-(4-octylphenyl)ethyl)pyrrolidin-1-ium chloride] | 0 |  | 5.74 | 9 | 62 |  | vacuolation [1, 5]: does not down-regulate nutrient transporter proteins or vacuolate; nutrient transporter down-regulation [3, 5]: does not down-regulate nutrient transporter proteins |
| CCCCCCCCc1ccc(C(=O)[C@@H]2C[C@@H](O)CN2)cc1.Cl [Compound 20, (2S,4R)-4-Hydroxy-2-(4-octylbenzoyl)pyrrolidin-1-ium chloride] | 0 |  | 4.55 | 2 | 9 | 48 |  |
